Data published in patent US20160326558A1, “Process for Stimulating Hyaluronic Acid Production with Ascorbic Acid Derivatives and the Composition Thereof” (CORUM INC., priority 2012, published 2016).
“And” between values parts separate entries of the source, which are not always exact repeats. Equal entries are not always repeated. “Also recorded” adds a separate entry of the source.

Test system: mouse fibroblast (3T3)
Assay: Stimulating hyaluronic acid production in mouse fibroblast, R&D HA-ELISA (Examples 3 and 5)
Assay type: cell-based
Details: for Hyaluronic Acid Content Stimulated, Average / Hyaluronic Acid Content Stimulated, single entries: 72 h, vs negative control = 100%, Table 5
Experimental: Complete medium is used in cell seeding stage. The confluent 3T3 cells are rinsed with sterile D-PBS, and trypsinize all cells and perform cell counting. Then, dilute the cell density to 4E+04/mL and seed 0.5 mL cell liquid (equals to 2E+04 cells) each well in 24 well plates. Incubate 3T3 cells at 37° C., 5% CO2 for about 24 hours. Starvation medium is used in this stage. The 24-hour-cultured 3T3 cells are rinsed with sterile D-PBS and discarded rinse buffer. Controls and testing materials in different concentrations are respectively added into the 3T3 cells in 24 well plates. Then, the 3T3 cells are incubated at 37° C., with 5% CO2 for about 72 hours. After incubating for about 72 hours, transfer some supernatant of cells treated with controls and testing materials into new containers. Centrifuge the supernatants at 2000 rpm for 5˜10 minutes. The hyaluronic acid content of the centrifuged supernatants are respectively determined by Hyaluronan Enzyme-Linked Immunosorbent Assay Kit, and calculated with the following Formula 1. [formula] In this example, we try another brand HA-ELISA kit (R&D; Cat No. DHYAL0) to figure out the reproducibility of the stimulatory effect. Excluding replacing the HA-ELISA kit, the materials and the procedures can be referred to the above Example 1. In this example, we try to figure out whether the stimulatory effect also can be found on ascorbic acid. Excluding replacing the HA-ELISA kit to another brand HA-ELISA kit (R&D; Cat No. DHYAL0) and replacing the testing material to ascorbic acid, the other materials and the procedures can be referred to the above Example 1.

Structure (SMILES): O=C1O[C@H]([C@@H](O)CO)C(O)=C1O [Ascorbic Acid, ascorbic acid]
- stimulation of hyaluronic acid production (in words) (2-100 ppm, comparing to the negative control): can NOT stimulate hyaluronic acid production; also recorded: cannot be helpful
- Hyaluronic Acid Content Stimulated, Average (2 ppm): 94%
- Hyaluronic Acid Content Stimulated, single entries (2 ppm): 99% and 64% and 119%
- Hyaluronic Acid Content Stimulated, Average (10 ppm): 101%
- Hyaluronic Acid Content Stimulated, single entries (10 ppm): 93% and 108% and 101%
- Hyaluronic Acid Content Stimulated, Average (50 ppm): 102%
- Hyaluronic Acid Content Stimulated, single entries (50 ppm): 105% and 100% and 102%
- Hyaluronic Acid Content Stimulated, Average (100 ppm): 91%
- Hyaluronic Acid Content Stimulated, single entries (100 ppm): 87% and 93% and 94%
